Reference: paper PMC3056768, “Conjugation to the Cell-Penetrating Peptide TAT Potentiates the Photodynamic Effect of Carboxytetramethylrhodamine” (PLoS ONE, 2011)
“Also recorded” adds a separate entry of the source.

Experiments:
[1] = tested on: HeLa cells; experiment: Photosensitization of extracellular peptide at 4°C (endocytosis blocked); format: cell-based, human; conditions: 3 µM, 4°C to block endocytosis, irradiated at 560 nm with compound still in the media
Method: (§1) HeLa (human cervical adenocarcinoma), COS-7 (SV40 transformed African green monkey kidney fibroblast-like cell line) were obtained from ATCC. COLO 316 (human ovarian carcinoma) were obtained from Robert Burghardt (Department of Veterinary Integrative Biosciences, Texas A&M University). Cells were cultured in DMEM supplemented with 10% fetal bovine serum (FBS) and maintained at 37°C in a humidified environment with 5% CO2. Cells were plated in 8-well dishes so that the cells were 70% confluent after 24 h, washed 3 times with L-15 media, incubated with 3 to 10 µM peptides at 37°C for 1 h, washed 3 times with L-15, and imaged. Alternatively, cells were incubated in L-15 at 4°C to inhibit the endocytic uptake of peptides. In this case, cells were imaged with the peptide still present in solution and the low temperature was maintained for the entire duration of imaging. For photosensitization, cells were exposed to light (λex = 560±20 nm) for the indicated time points. Plasma membrane disruption was detected by addition of the cell-impermeable DNA stain SYTOX Blue (5 µM) during or after photosensitization.
It is therefore possible that the endosomal release observed in the experiments of Figure 1 might be necessary to cause cell death. To investigate whether this is the case, we examined if light-induced cell-death could be observed when the peptides were only localized at the plasma membrane of cells. For these experiments, HeLa cells were first incubated with the peptides (3 µM) at 4°C to block endocytosis. Cells were then irradiated with the peptides still present in the media (the peptide is not retained at the plasma membrane when cells are washed). […] Cells were then washed and observed by fluorescence imaging. […] On the other hand, the membrane damage and cell death obtained after TMR-TAT photosensitization were also observed when hematoporphyrin (HP) or hematoporphyrin derivative (HPD) were used (Fig. 4B). […]

[2] = tested on: HeLa cells; experiment: Photocytotoxicity of endocytosed peptide after light irradiation (SYTOX Blue staining, membrane blebbing); format: cell-based; conditions: for photocytotoxicity / cell death after irradiation at 560 nm: incubation 1 h 37°C (3 µM; TMR-K9 10 µM), irradiated at 560±20 nm
Method: as §1
(§2) Ten to twenty images were acquired for each experiment.
Irradiances at the specimen were 100 mW/cm^2 when no neutral density filter and no objective were present in the light path (and, for instance 5 mW/cm^2 when ND4 was inserted). Irradiances were measured using a monochromic photometer (model 840-c, Newport, Irvine, CA). Irradiation area has a diameter of 1.3 cm without objective but the light beam is focused into an area of 3×10^−3 cm^2 by the 100× objective. Irradiances can therefore be approximated to be at […] with ND4 or ND1, respectively. Irradiances provided in the figure legends are based on these calculations. To confirm that the irradiances measured on the microscope were accurate, experiments were also reproduced, when possible, using light illumination with a collimated light source from Oriel (Stratford, CT) equipped with a 500 W Hg lamp. Selective irradiation at 560 nm was performed using an analytical line filter (Oriel, 9.4 nm bandwidth). In this case, irradiances of the light beam (diameter of 2.5 cm) could be measured more precisely using the monochromic photometer.

[3] = tested on: red blood cells (RBCs); conditions: for effect of hydrophilic 1O2 scavenger on photohemolysis by TMR-TAT or TMR-riTAT: scavenger up to 50 mM, TMR-TAT or TMR-riTAT 3 µM
Method: Whole blood was purchased from Gulf Coast Regional Blood Center (Houston, TX). Erythrocytes were centrifuged for 5 min at 1500 g and the erythrocyte pellet was resuspended with PBS. This was repeated three times to remove plasma and buffy coat. The erythrocytes (50% volume in PBS) were diluted in PBS to a final concentration of 0.25%. Indicated concentration of peptide was added to the medium and the samples were added to the wells of an 8-well chamber glass slide (Nunc). Cells were typically allowed to settle to the bottom of the dish for 5 minutes prior to imaging so as to obtain a layer of cells in the focal plane.
Cells were placed on an inverted epifluorescence microscope (Model IX81, Olympus, Center Valley, PA) equipped with a heating stage maintained at 37°C. The microscope is configured with a spinning disk unit to perform both confocal and wide-field fluorescence microscopy. Images were collected using a Rolera-MGI Plus back-illuminated EMCCD camera (Qimaging, Surrey, BC, Canada). Images were acquired using bright field imaging and two standard fluorescence filter sets: Texas Red (Ex = 560±20 nm/Em = 630±35 nm), and CFP (Ex = 436±10 nm/Em = 480±20 nm). The excitation light was from a 100 W halogen lamp (Olympus USH 1030C) passed through the filter cubes and 40 or 100× objective lenses. Neutral density filters (ND 1, 2, 3, or 4 on the instrument, corresponding to 100, 25, 12.5, or 5% transmittance) and different exposure times were used to modulate the amount of light samples were exposed to. The bright field and fluorescence intensities of cells and ghosts were measured using the SlideBook 4.2 software (Olympus, Center Valley, PA). To determine the percentage of cells stained by SYTOX® Blue, cells were imaged with a 20× objective by phase contrast. Ten to twenty images were acquired for each experiment. The total number of cells in a given image was determined from the phase contrast image while the number of dead cells was determined by identifying cells containing a blue fluorescent nucleus stained by SYTOX® Blue. Cell viability was determined by establishing a ratio of dead cells/total number of cells for each sample (at least 1000 cells were counted in each experiments and each experiments were repeated 3 times).
TMR and TMR containing peptides were used at 2 µM. All experiments were performed by irradiating the samples at 560 nm for 400 msec (∼8 J/cm^2). The data in the histogram represents the average of 4 experiments and the error bars correspond to the standard deviation.

[4] = cited from earlier work
From the text: Upon light irradiation TMR-TAT rapidly and efficiently disrupts the membrane of endosomes. However, in our hands, this activity is also accompanied by the simultaneous destruction of cells. The peptide therefore played the role of a photosensitizer, a molecule able to kill cells upon light irradiation. While multiple cellular events might take place during the photosensitization of the compound, the damage to cellular membranes other than that of endosomes appears to lead to this photocytotoxic effect. The peptide was for instance able to lyse the plasma membrane of HeLa cells as well as the m ...

[5] = tested on: HeLa cells; experiment: Photo-induced endosomal release (fluorescence imaging); format: cell-based, human; conditions: washed
Method: as §1, §2
The effect of light irradiation on cells that have endocytosed TMR-TAT was first investigated. HeLa cells were incubated in the presence of TMR-TAT (3 µM) for 1 hour at 37°C. After washing the cells, the sample was placed on a microscope and the cellular distribution of the peptide was assessed by fluorescence imaging. […] Within seconds, the content of many endosomes was released into the cell and the peptides were distributed throughout the cell. The peptide also accumulated at the nucleoli, a known effect of TAT [7]. […] The viability of non-irradiated cells was, in contrast, not affected by TMR-TAT (Fig. 2B); we found the cytotoxicity of the peptide to be negligible in the absence of light at concentrations up to 25 µM (supporting information Fig. S1).

[6] = tested on: HeLa cells; experiment: Endocytic uptake (fluorescence of endocytic organelles); format: cell-based, human
Method: as §1
Supplementary file pone.0017732.s003.tif: Figure S3 Comparison of the fluorescence intensity of endosomes containing TMR-TAT (incubation at 3 µM) or TMR-K9 (incubation at 10 µM) in the images presented in Figure 1. Imaging was performed in both cases under identical conditions. The fluorescence intensities of all endocytic organelles was measured the Slidebook software. […] (TIF) Click here for additional data file.

## 5(6)-carboxytetramethylrhodamine [TMR, reference compound]
[1]
  light-induced cell death with peptide only extracellular: did not die
[2]; washed
  photocytotoxicity / cell death after irradiation at 560 nm: did not cause cell death; also recorded: essentially non-cytotoxic
[3]; RBCs 0.25% in PBS, irradiation at 560 nm
  photohemolysis (lytic effect on RBCs upon light exposure): no lytic effect

## CC1=C(CCC(=O)O)c2cc3[nH]c(cc4nc(cc5[nH]c(cc1n2)c(C)c5C(C)O)C(C)=C4C(C)O)c(C)c3CCC(=O)O (stereo not shown) [HP, hematoporphyrin]
[4]
  singlet oxygen quantum yield: approximately 0.5
[2]; incubated 1 hour, washed with L-15, irradiated at 560 nm
  membrane damage and cell death after photosensitization: also observed

## N[C@@H](Cc1c[nH]cn1)C(=O)O [L-histidine, reference compound]
[3]
  effect of hydrophilic 1O2 scavenger on photohemolysis by TMR-TAT or TMR-riTAT: no detectable decrease

## CC(/C=C/C=C(\C)C(=O)O)=C\C=C\C=C(C)\C=C\C=C(/C)C(=O)O [crocetin, reference compound]
[5]; TMR-TAT 3 µM with crocetin 50 µM for 1 hour, 560 nm
  endosomal release of TMR-TAT in the presence of quencher: lesser extent; also recorded: reduced by crocetin but not abolished
[2]; TMR-TAT 3 µM with crocetin 50 µM for 1 hour, washed, 560 nm
  cell death by irradiated TMR-TAT in the presence of quencher: cell-death was not observed; also recorded: not accompanied by membrane blebbing or SYTOX® Blue staining
[3]; crocetin 50 µM
  effect of quencher on photohemolysis: dramatic reduction

## [N-]=[N+]=[N-].[Na+] [sodium azide, reference compound]
[3]
  effect of hydrophilic 1O2 scavenger on photohemolysis by TMR-TAT or TMR-riTAT: no detectable decrease

## CC(=O)Oc1c(C)c(C)c2c(c1C)CCC(C)(CCC[C@H](C)CCC[C@H](C)CCCC(C)C)O2 (stereo partly drawn) [α-tocopherol acetate]
[2]; α-tocopherol acetate prior to TMR-TAT incubation and during irradiation
  onset of photosensitization of TMR-TAT in the presence of quencher: delayed
[2]; α-tocopherol acetate prior to TMR-TAT incubation and during irradiation, data not shown
  photo-induced endosomal release and cell death by TMR-TAT in the presence of quencher: still observed

## GRKKRRQRRR [TAT, prototypical cell-penetrating peptide TAT, unlabeled]
[2]; washed
  photocytotoxicity / cell death after irradiation at 560 nm: did not die

## TMR-KKKKKKKKK-NH2 [TMR-K9, 9 positively charged lysine residues labeled with TMR; serves as a control]
[5]; incubation 1 h 37°C (3 µM; TMR-K9 10 µM), irradiated at 560±20 nm
  photo-induced endosomal release (photoendosomolytic activity) at 560 nm: not affected
[1]
  light-induced cell death with peptide only extracellular: did not die
[2]; washed
  photocytotoxicity / cell death after irradiation at 560 nm: remain viable; also recorded: no photocytoxicity; also recorded: essentially non-cytotoxic
[3]; RBCs 0.25% in PBS, 2 µM, 560 nm for 400 msec (~8 J/cm^2), average of 4 experiments
  fold less efficient than TMR-TAT and TMR-riTAT in causing photohemolysis: 5 fold
[6]; 1 h at 37°C, washed, fluorescence imaging (TMR-TAT 3 µM; TMR-K9 higher concentration)
  endocytic uptake by cells: endocytosed by cells
[6]; TMR-K9 incubation at 10 µM vs TMR-TAT at 3 µM, identical imaging
  amount present in endocytic organelles (fluorescence intensity) compared with TMR-TAT: equal or greater that that of TMR-TAT
